Test results: the OligoGym collection
After the bases stand the sugars from the 5' end (letter, count) and the backbone: PS all phosphorothioate, else s phosphorothioate and o phosphodiester by linkage. Methylation of C is not given here. l = locked nucleic acid (LNA); d = 2'-deoxy (DNA)

Molecular target: SNHG14
Details: ASO

**Q.** How did the target mRNA inhibition (Human Neuronal Cell, 7.5 µM) turn out when “TTTATCAATATCTTCTCAC (sugars lldldlddddddllddlll, PS)” was run?
**A.** 58%

**Q.** Which results are given for CATGACACTTACATAA (sugars l3 d10 l3, PS)?
**A.** target mRNA inhibition (Human Neuronal Cell, 0.2 µM): 31%; target mRNA inhibition (Human Neuronal Cell, 1 µM): 45%

**Q.** TCTCTAATCCTATTCC (sugars l4 d10 l2, PS) was tested. Which target mRNA inhibition (Human Neuronal Cell, 0.2 µM) did it give?
**A.** 53%

**Q.** And the target mRNA inhibition (Human Neuronal Cell, 1 µM)?
**A.** 58%

**Q.** For “CCTACATCTCATACTTG (sugars l3 d11 l3, PS)”, which target mRNA inhibition (Mouse Primary Neuronal Cell, 0.005 µM) is on record?
**A.** 96%

**Q.** “GTTCTACTATACTTTCCT (sugars lldldlddddddddddll, PS)” was tested. Which target mRNA inhibition (Human Neuronal Cell, 7.5 µM) did it give?
**A.** 63%

**Q.** How did the target mRNA inhibition (Human Neuronal Cell, 7.5 µM) turn out when “TTTTATACCTTTCTTTAACC (sugars ldddlddddddddlddddll, PS)” was run?
**A.** -9%

**Q.** ATCATCAGTTACATCA (sugars l4 d10 l2, PS) was tested. Which target mRNA inhibition (Human Neuronal Cell, 0.2 µM) did it give?
**A.** 62%

**Q.** And the target mRNA inhibition (Human Neuronal Cell, 1 µM)?
**A.** 63%

**Q.** For “TCTGTATACACCATCCC (sugars l2 d13 l2, PS)”, which target mRNA inhibition (Human Neuronal Cell, 7.5 µM) is on record?
**A.** 62%

**Q.** How did the target mRNA inhibition (Human Neuronal Cell, 7.5 µM) turn out when “TTTTTTTCTTACTATCTTCA (sugars l1 d14 l1 d2 l2, PS)” was run?
**A.** 17%

**Q.** How did the target mRNA inhibition (Human Neuronal Cell, 7.5 µM) turn out when “CAACATTATTAACCACCTTA (sugars lddddllddddddddlddll, PS)” was run?
**A.** 47%

**Q.** AACATGTAATTTCCAT (sugars l2 d10 l4, PS) was tested. Which target mRNA inhibition (Human Neuronal Cell, 0.2 µM) did it give?
**A.** 31%

**Q.** What about the target mRNA inhibition (Human Neuronal Cell, 1 µM) of the same sequence?
**A.** 27%

**Q.** “AGTTCTACTATACTTTCC (sugars l1 d15 l2, PS)” was tested. Which target mRNA inhibition (Human Neuronal Cell, 7.5 µM) did it give?
**A.** 11%

**Q.** How did the target mRNA inhibition (Human Neuronal Cell, 0.2 µM) turn out when ATCTGAATCAAACCTT (sugars l2 d10 l4, PS) was run?
**A.** 45%

**Q.** And the target mRNA inhibition (Human Neuronal Cell, 1 µM)?
**A.** 45%

**Q.** “CAAAGATCATTCTCAACA (sugars l1 d1 l2 d8 l6, PS)” was tested. Which target mRNA inhibition (Human Neuronal Cell, 7.5 µM) did it give?
**A.** 58%

**Q.** Which target mRNA inhibition (Human Neuronal Cell, 7.5 µM) does the source give for “CTTTCCATTTATTTCCATTT (sugars l1 d13 l1 d3 l2, PS)” here?
**A.** 35%

**Q.** For “ACTCTGCAATACACCAA (sugars ldddldddddddldlll, PS)”, which target mRNA inhibition (Human Neuronal Cell, 7.5 µM) is on record?
**A.** 66%

**Q.** How did the target mRNA inhibition (Human Neuronal Cell, 0.2 µM) turn out when “ATCTTTCCATTTATTTCC (sugars l3 d12 l3, PS)” was run?
**A.** 52%

**Q.** And the target mRNA inhibition (Human Neuronal Cell, 1 µM)?
**A.** 56%

**Q.** What does the source list for “TTTCCTATATTCTCTTA (sugars l4 d11 l2, PS)”?
**A.** target mRNA inhibition (Human Neuronal Cell, 0.2 µM): 56%; target mRNA inhibition (Human Neuronal Cell, 1 µM): 64%

**Q.** “TAAAATTATTTATACACCA (sugars l3 d1 l2 d9 l4, PS)” was tested. Which target mRNA inhibition (Human Neuronal Cell, 7.5 µM) did it give?
**A.** 59%

**Q.** “TTTATTTCCATTTATTTTC (sugars lllddldddddddllldll, PS)” was tested. Which target mRNA inhibition (Human Neuronal Cell, 7.5 µM) did it give?
**A.** 51%

**Q.** How did the target mRNA inhibition (Human Neuronal Cell, 7.5 µM) turn out when “GTTTATACCCTTTCCAAT (sugars l1 d2 l1 d12 l2, PS)” was run?
**A.** 61%

**Q.** Which target mRNA inhibition (Human Neuronal Cell, 7.5 µM) does the source give for “GTTTCCATCTACTATTAA (sugars l3 d1 l1 d9 l4, PS)” here?
**A.** 55%

**Q.** Which target mRNA inhibition (Human Neuronal Cell, 7.5 µM) does the source give for “CAACATTATTAACCACCTTA (sugars l4 d10 l1 d2 l3, PS)” here?
**A.** 55%

**Q.** Which target mRNA inhibition (Human Neuronal Cell, 7.5 µM) does the source give for “CTGTATACACCATCCCA (sugars l1 d10 l1 d3 l2, PS)” here?
**A.** 54%

**Q.** ACTCCTAAGAATTACA (sugars l4 d10 l2, PS) was tested. Which target mRNA inhibition (Human Neuronal Cell, 0.2 µM) did it give?
**A.** 34%

**Q.** What about the target mRNA inhibition (Human Neuronal Cell, 1 µM) of the same sequence?
**A.** 34%

**Q.** Which target mRNA inhibition (Human Neuronal Cell, 0.2 µM) does the source give for CTCTTTGTCAAATACT (sugars l4 d10 l2, PS) here?
**A.** 33%

**Q.** And the target mRNA inhibition (Human Neuronal Cell, 1 µM)?
**A.** 13%

**Q.** For “TTCACCAGTATTTCTTC (sugars l4 d11 l2, PS)”, which target mRNA inhibition (Human Neuronal Cell, 0.2 µM) is on record?
**A.** 36%

**Q.** What about the target mRNA inhibition (Human Neuronal Cell, 1 µM) of the same sequence?
**A.** 32%

**Q.** How did the target mRNA inhibition (Human Neuronal Cell, 7.5 µM) turn out when “TTATAGCCATTCTATCT (sugars ldddlddddddldldll, PS)” was run?
**A.** 5%

**Q.** For “CTTTCCATTTATTTCCATT (sugars l1 d3 l1 d11 l3, PS)”, which target mRNA inhibition (Human Neuronal Cell, 7.5 µM) is on record?
**A.** 58%

**Q.** “TTTGACATTCCATCTCC (sugars l2 d12 l3, PS)” was tested. Which target mRNA inhibition (Human Neuronal Cell, 0.2 µM) did it give?
**A.** 38%

**Q.** What about the target mRNA inhibition (Human Neuronal Cell, 1 µM) of the same sequence?
**A.** 55%

**Q.** How did the target mRNA inhibition (Human Neuronal Cell, 0.2 µM) turn out when TCACCTAATAGCACCA (sugars l2 d10 l4, PS) was run?
**A.** 60%

**Q.** And the target mRNA inhibition (Human Neuronal Cell, 1 µM)?
**A.** 69%

**Q.** Which target mRNA inhibition (Human Neuronal Cell, 0.2 µM) does the source give for “ACTTTACTGCCATAATC (sugars l3 d11 l3, PS)” here?
**A.** 40%

**Q.** And the target mRNA inhibition (Human Neuronal Cell, 1 µM)?
**A.** 33%

**Q.** With “TTTACACTTAATTATACTTC (sugars lldddldddddddlllldll, PS)” as the sequence, how does the target mRNA inhibition (Human Neuronal Cell, 7.5 µM) read?
**A.** 51%

**Q.** For GTTTATACCCTTTCCA (sugars l2 d11 l3, PS), which target mRNA inhibition (Human Neuronal Cell, 0.2 µM) is on record?
**A.** 49%

**Q.** And the target mRNA inhibition (Human Neuronal Cell, 1 µM)?
**A.** 58%

**Q.** For “TACACTTAATTATACTTCCA (sugars lddldllddddddddlddll, PS)”, which target mRNA inhibition (Human Neuronal Cell, 7.5 µM) is on record?
**A.** 56%

**Q.** How did the target mRNA inhibition (Human Neuronal Cell, 7.5 µM) turn out when “TACACTTAATTATACTTCCA (sugars lddddldddddddldlddll, PS)” was run?
**A.** 60%

**Q.** How did the target mRNA inhibition (Human Neuronal Cell, 7.5 µM) turn out when “TTCTGTATACACCATCC (sugars l3 d12 l2, PS)” was run?
**A.** 58%

**Q.** How did the target mRNA inhibition (Human Neuronal Cell, 7.5 µM) turn out when “AAAATCTCAACTACCATTT (sugars ldlldlddddddddlldll, PS)” was run?
**A.** 30%

**Q.** For “TTATTTCCATTTATTTTCA (sugars ldlldddddddddlddlll, PS)”, which target mRNA inhibition (Human Neuronal Cell, 7.5 µM) is on record?
**A.** 68%

**Q.** Which target mRNA inhibition (Human Neuronal Cell, 0.2 µM) does the source give for CTCCTTTATGACTCCA (sugars l3 d11 l2, PS) here?
**A.** 50%

**Q.** And the target mRNA inhibition (Human Neuronal Cell, 1 µM)?
**A.** 56%

**Q.** For “TTATAGCCATTCTATCT (sugars ldlddddddddlddlll, PS)”, which target mRNA inhibition (Human Neuronal Cell, 7.5 µM) is on record?
**A.** 57%

**Q.** CAAATACAGATTATCC (sugars l2 d10 l4, PS) was tested. Which target mRNA inhibition (Human Neuronal Cell, 0.2 µM) did it give?
**A.** 49%

**Q.** What about the target mRNA inhibition (Human Neuronal Cell, 1 µM) of the same sequence?
**A.** 59%

**Q.** With GACCTCAATACTCTAC (sugars l4 d10 l2, PS) as the sequence, how does the target mRNA inhibition (Human Neuronal Cell, 0.2 µM) read?
**A.** 37%

**Q.** And the target mRNA inhibition (Human Neuronal Cell, 1 µM)?
**A.** 44%

**Q.** Which target mRNA inhibition (Human Neuronal Cell, 7.5 µM) does the source give for “AATTTTTTTCTTACTATCTT (sugars ldllddddddddddllddll, PS)” here?
**A.** 44%

**Q.** “TCCATTTATTTCCATTTATT (sugars ldlldddddddddlddddll, PS)” was tested. Which target mRNA inhibition (Human Neuronal Cell, 7.5 µM) did it give?
**A.** 46%

**Q.** With “TCCAAACTGTCTTCTAA (sugars l3 d12 l2, PS)” as the sequence, how does the target mRNA inhibition (Human Neuronal Cell, 0.2 µM) read?
**A.** 36%

**Q.** And the target mRNA inhibition (Human Neuronal Cell, 1 µM)?
**A.** 23%
